Test results published in ChEMBL document CHEMBL1201862, “PubChem BioAssay data set” (2004).
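Values below derive from 48-hour exposures of cells grown in 96-well plates, with endpoints linearly interpolated between the two concentrations bracketing the appropriate inhibition level. GI50 = concentration required for 50% inhibition of growth.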 Calls of active or inactive are those of the source. Rule as the data show it: active = GI50 up to about 1.1 µM and inactive = higher.

Columns and labels:
Assay in all cases: growth of human tumour cells (NCI), 48 h
SK-MEL-5 = system: SK-MEL-5
NCI-H522 = system: NCI-H522
UO-31 = system: UO-31
OVCAR-4 = system: OVCAR-4
SW-620 = system: SW-620
SN12C = system: SN12C
UACC-257 = system: UACC-257
NCI-H460 = system: NCI-H460
M14 = system: M14
SK-OV-3 = system: SK-OV-3
MDA-MB-231 = system: MDA-MB-231
Malme-3M = system: Malme-3M
A498 = system: A498
SF-268 = system: SF-268
KM12 = system: KM12
DU-145 = system: DU-145
COLO 205 = system: COLO 205
EKVX = system: EKVX
LOX IMVI = system: LOX IMVI
CCRF-CEM = system: CCRF-CEM

Row | Structure (SMILES) | GI50 (SK-MEL-5) | GI50 (NCI-H522) | GI50 (UO-31) | GI50 (OVCAR-4) | GI50 (SW-620) | GI50 (SN12C) | GI50 (UACC-257) | GI50 (NCI-H460) | GI50 (M14) | GI50 (SK-OV-3) | GI50 (MDA-MB-231) | GI50 (Malme-3M) | GI50 (A498) | GI50 (SF-268) | GI50 (KM12) | GI50 (DU-145) | GI50 (COLO 205) | GI50 (EKVX) | GI50 (LOX IMVI) | GI50 (CCRF-CEM)
1 | S=C(Nc1ccc2c(c1)Cc1ccccc1-2)Nc1ccc2c(c1)Cc1ccccc1-2 | > 100 µM (inactive) | > 100 µM (inactive) | > 100 µM (inactive) | > 100 µM (inactive) | > 100 µM (inactive) | > 100 µM (inactive) | > 100 µM (inactive) | > 100 µM (inactive) | > 100 µM (inactive) | > 100 µM (inactive) | > 100 µM (inactive) | > 100 µM (inactive) | > 100 µM (inactive) | > 100 µM (inactive) | > 100 µM (inactive) | > 100 µM (inactive) | > 100 µM (inactive) | > 100 µM (inactive) | > 100 µM (inactive) | 11.4 µM (inactive)
2 | O=C(Cn1c(C(=O)c2ccccc2)nc2ccccc21)c1ccccc1 | > 100 µM (inactive) | > 58.3 µM (inactive) | > 56.1 µM (inactive) | 96.8 µM (inactive) | 4.85 µM (inactive) | > 100 µM (inactive) | > 100 µM (inactive) | > 90.6 µM (inactive) | > 100 µM (inactive) | > 100 µM (inactive) | > 100 µM (inactive) | > 96.2 µM (inactive) | > 100 µM (inactive) | > 100 µM (inactive) | > 100 µM (inactive) | > 100 µM (inactive) | > 100 µM (inactive) | > 100 µM (inactive) | > 100 µM (inactive) | > 100 µM (inactive)
3 | COc1ccc(C(=O)NCCN(C)C)c2nc3ccccc3cc12 | 1.23 µM (inactive) | 0.817 µM (active) | 0.532 µM (active) | 1.54 µM (inactive) | 0.383 µM (active) | 0.386 µM (active) | 1.58 µM (inactive) | 0.0255 µM (active) | 1.33 µM (inactive) | 1.56 µM (inactive) | 2.12 µM (inactive) | 0.841 µM (active) | 0.114 µM (active) | 1.58 µM (inactive) | 1.34 µM (inactive) | 0.753 µM (active) | 1.2 µM (inactive) | 1.66 µM (inactive) | 0.279 µM (active) | 0.208 µM (active)
4 | COC(=O)C(CCSC)NC(=O)Cc1ccc(C(=O)c2ccccc2)cc1 (stereo not given) | 32.5 µM (inactive) | 57.8 µM (inactive) | 53.7 µM (inactive) | > 100 µM (inactive) | 42.4 µM (inactive) | 50.1 µM (inactive) | > 100 µM (inactive) | 34.7 µM (inactive) | 35.5 µM (inactive) | 40.4 µM (inactive) | 37.3 µM (inactive) | > 100 µM (inactive) | > 100 µM (inactive) | > 100 µM (inactive) | 25.9 µM (inactive) | 86.9 µM (inactive) | > 100 µM (inactive) | 39.2 µM (inactive) | 55.7 µM (inactive) | 42.5 µM (inactive)
5 | CCCCCCCCCc1cc(-c2ccc(C=O)s2)sc1-c1ccc(C=O)s1 | 15.7 µM (inactive) | 15.9 µM (inactive) | 17.7 µM (inactive) | 24.4 µM (inactive) | 30.2 µM (inactive) | 32.5 µM (inactive) | 13.6 µM (inactive) | 25.1 µM (inactive) | 8.47 µM (inactive) | 29 µM (inactive) | 26.2 µM (inactive) | 40.5 µM (inactive) | 1.6 µM (inactive) | 34.8 µM (inactive) | 36.6 µM (inactive) | 26.7 µM (inactive) | 20 µM (inactive) | 70.6 µM (inactive) | 11.5 µM (inactive) | 2.23 µM (inactive)
6 | O=c1c(F)cn(Cc2c(Cl)cccc2Cl)c(=O)n1Cc1c(Cl)cccc1Cl | 18.1 µM (inactive) | 16 µM (inactive) | 18.1 µM (inactive) | 17.1 µM (inactive) | > 31.6 µM (inactive) | > 31.6 µM (inactive) | > 31.6 µM (inactive) | > 31.6 µM (inactive) | > 31.6 µM (inactive) | > 31.6 µM (inactive) | > 31.6 µM (inactive) | > 31.6 µM (inactive) | > 31.6 µM (inactive) | > 31.6 µM (inactive) | > 31.6 µM (inactive) | > 100 µM (inactive) | 19.9 µM (inactive) | 21.4 µM (inactive) | > 31.6 µM (inactive) | 27 µM (inactive)
7 | Cc1ccc(S(=O)(=O)CNC(=O)C(O)(O)C(F)(F)F)cc1 | > 100 µM (inactive) | > 100 µM (inactive) | > 100 µM (inactive) | > 100 µM (inactive) | > 100 µM (inactive) | > 100 µM (inactive) | > 100 µM (inactive) | > 100 µM (inactive) | > 100 µM (inactive) | > 100 µM (inactive) | > 100 µM (inactive) | > 100 µM (inactive) | > 100 µM (inactive) | > 100 µM (inactive) | > 100 µM (inactive) | > 100 µM (inactive) | > 100 µM (inactive) | > 100 µM (inactive) | > 100 µM (inactive) | > 100 µM (inactive)
8 | NCCCCCCn1c(-c2ccc(Br)cc2)cs/c1=N\c1ccccc1 | 10.1 µM (inactive) | 10.5 µM (inactive) | 10.4 µM (inactive) | 12.7 µM (inactive) | 4.28 µM (inactive) | 13.7 µM (inactive) | 15.2 µM (inactive) | 13.1 µM (inactive) | 1.44 µM (inactive) | 17.2 µM (inactive) | 14.4 µM (inactive) | 9.35 µM (inactive) | 17.9 µM (inactive) | 13.9 µM (inactive) | 5.74 µM (inactive) | 13.5 µM (inactive) | 1.79 µM (inactive) | 13.8 µM (inactive) | 2.53 µM (inactive) | 6.9 µM (inactive)
9 | Cc1cc(N(CCC#N)CCC#N)ccc1/C=C(\NC(=O)/C=C/c1ccccc1)C(=O)NN | > 79.6 µM (inactive) | > 56.1 µM (inactive) | > 100 µM (inactive) | > 100 µM (inactive) | > 100 µM (inactive) | > 100 µM (inactive) | > 100 µM (inactive) | > 66.8 µM (inactive) | > 100 µM (inactive) | 31 µM (inactive) | 32.4 µM (inactive) | > 100 µM (inactive) | > 100 µM (inactive) | > 53.2 µM (inactive) | > 100 µM (inactive) | > 100 µM (inactive) | > 100 µM (inactive) | > 73.3 µM (inactive) | > 100 µM (inactive) | > 100 µM (inactive)
10 | COc1ccc2oc(S(=O)(=O)N3CC(CCl)c4ccc([N+](=O)[O-])cc43)cc2c1 (stereo not given) | 0.0752 µM (active) | 0.0292 µM (active) | 0.783 µM (active) | 6.28 µM (inactive) | 0.0841 µM (active) | 0.179 µM (active) | 0.073 µM (active) | 0.102 µM (active) | 0.122 µM (active) | 0.105 µM (active) | 0.29 µM (active) | 0.767 µM (active) | 0.0746 µM (active) | 0.299 µM (active) | 0.0465 µM (active) | 0.0883 µM (active) | 0.105 µM (active) | 0.173 µM (active) | 0.155 µM (active) | 0.45 µM (active)
